In paper PMC9030381, “The Discovery of Potent SHP2 Inhibitors with Anti-Proliferative Activity in Breast Cancer Cell Lines” (International Journal of Molecular Sciences, 2022):
pIC50: −log10 of the molar value.

Tests used:
SHP1 = SHP1 (Homo sapiens, UniProt P29350); test: Enzymatic SHP1 inhibition assay (selectivity); assay type: biochemical; conditions: read-out: SHP1 Obtained IC50
MCF-7 [1] = test: Cell proliferative assay (DAPI cell count); assay type: cell-based; conditions: at 20 μM, 48 h, in comparison with the vehicle
Procedure: (§1) The 5 × 10^3 cells/well of MCF-7 or MDA-MB-231cell-lines were seeded in 96 well plates. The next day, cells were treated with 0.16, 0.8, 4, and 20 µM of NSC 13030, 24198, 57774, 137420, or DMSO (Sigma-Aldrich–Cat D9170, St. Louis, MO, USA) as control. After 48 h of incubation, cells were stained with DAPI (Thermo Fischer–Cat R37606, Waltham, MA, USA) and images of the entire wells were taken with a 20× objective and a DAPI filter cube using Lionheart FX automated microscope. The image analysis and cell counts were done using Gen5 software. All conditions were done in triplicates.

MCF-7 [2] = test: Cell viability assay (CellTiter 96 AQueous One); assay type: cell-based; conditions: at 20 μM, 48 h
Procedure: (§2) The percentage of viable cells was determined using The CellTiter 96® AQueous One Solution Cell Proliferation Assay (Promega–Cat G3580, Madison, WI, USA). Briefly, 5 × 10^3 cells/well of MCF-7 or MDA-MB-231 were plated in a 96 well culture plate in a total volume of 100 µL/well. The next day, cells were treated with 0.16, 0.8, 4, and 20 µM of NSC 13030, 24198, 57774, 137420, or DMSO as control. After 48 h, 20 µL of CellTiter 96 AQuoeus one solution reagent was added in each well, and incubated for 4 h in a CO2 incubator at 37 °C. The percentage of living cells was calculated by dividing the OD (490 nm) of treated cells by the same concentration of DMSO controls. All conditions were done in triplicates.

SHP2 = target: T1, SHP2 (Homo sapiens, UniProt Q06124); test: Enzymatic SHP2 inhibition assay (pNPP phosphatase activity); assay type: biochemical; conditions: for inhibition at 100 µM: read-out: inhibition of SHP2 enzyme; for pIC50: pNPP substrate, read-out: SHP2 Obtained IC50
T1 construct: purchased BPS Bioscience, Inc., San Diego, CA, USA
T1 sequence (Q06124 1-593): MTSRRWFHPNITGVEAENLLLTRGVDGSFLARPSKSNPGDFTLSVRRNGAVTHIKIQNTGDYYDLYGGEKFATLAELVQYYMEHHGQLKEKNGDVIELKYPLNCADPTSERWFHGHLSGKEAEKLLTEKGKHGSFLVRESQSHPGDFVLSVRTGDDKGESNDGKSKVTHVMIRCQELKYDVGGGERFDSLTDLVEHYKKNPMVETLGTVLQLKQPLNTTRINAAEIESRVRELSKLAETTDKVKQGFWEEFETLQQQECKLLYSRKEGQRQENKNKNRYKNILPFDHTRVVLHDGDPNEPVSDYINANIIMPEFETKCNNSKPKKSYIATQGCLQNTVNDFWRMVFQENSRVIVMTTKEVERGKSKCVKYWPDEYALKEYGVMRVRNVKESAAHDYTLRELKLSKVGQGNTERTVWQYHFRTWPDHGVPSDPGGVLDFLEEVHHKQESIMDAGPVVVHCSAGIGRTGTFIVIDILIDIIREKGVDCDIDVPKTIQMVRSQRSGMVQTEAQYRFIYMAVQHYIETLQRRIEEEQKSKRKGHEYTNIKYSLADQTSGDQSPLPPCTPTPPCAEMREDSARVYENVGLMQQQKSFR
Procedure: Phosphatase Activity Assay (PTP) using p-nitrophenyl phosphate (pNPP) as a substrate was carried out in a total volume of 100 µL. This was done by monitoring the increase in phosphatase absorbance at 405 nm in the presence of the substrate using 96-well microplate reader (Thermo Scientific Multiskan GO, Waltham, MA, USA). The standard reaction mixture consisted of PTP buffer (100 mM NaCl, 2 mM EDTA, 50 mM HEPES, 3 mM DTT, pH 7.4), 100 nM of Shp2 (BPS Bioscience, Inc., San Diego, CA, USA), and 1 mM of pNPP incubated for 90 min at 30 °C. The enzymatic reaction was stopped by the addition of 50 µL of 5 M NaOH. For inhibition reaction, SHP2 enzyme was preincubated with 100 µM compound or their vehicle (DMSO) for 5 min at 37 °C, prior to the incubation with pNPP substrate for 90 min at 30 °C. The same method was used to calculate IC50 values using GraphPad Prism software 8.0 (San Diego, CA, USA). Wells with SHP2 substrate and without compounds were considered controls (enzyme activity is 100%).

MDA-MB-231 [3] = test: Cell proliferative assay (DAPI cell count); assay type: cell-based; conditions: at 20 μM, 48 h, in comparison with the vehicle
Procedure: as §1

MDA-MB-231 [4] = test: Cell viability assay (CellTiter 96 AQueous One); assay type: cell-based; conditions: at 20 μM, 48 h
Procedure: as §2

Chain of SHP1 (P29350 whole entry): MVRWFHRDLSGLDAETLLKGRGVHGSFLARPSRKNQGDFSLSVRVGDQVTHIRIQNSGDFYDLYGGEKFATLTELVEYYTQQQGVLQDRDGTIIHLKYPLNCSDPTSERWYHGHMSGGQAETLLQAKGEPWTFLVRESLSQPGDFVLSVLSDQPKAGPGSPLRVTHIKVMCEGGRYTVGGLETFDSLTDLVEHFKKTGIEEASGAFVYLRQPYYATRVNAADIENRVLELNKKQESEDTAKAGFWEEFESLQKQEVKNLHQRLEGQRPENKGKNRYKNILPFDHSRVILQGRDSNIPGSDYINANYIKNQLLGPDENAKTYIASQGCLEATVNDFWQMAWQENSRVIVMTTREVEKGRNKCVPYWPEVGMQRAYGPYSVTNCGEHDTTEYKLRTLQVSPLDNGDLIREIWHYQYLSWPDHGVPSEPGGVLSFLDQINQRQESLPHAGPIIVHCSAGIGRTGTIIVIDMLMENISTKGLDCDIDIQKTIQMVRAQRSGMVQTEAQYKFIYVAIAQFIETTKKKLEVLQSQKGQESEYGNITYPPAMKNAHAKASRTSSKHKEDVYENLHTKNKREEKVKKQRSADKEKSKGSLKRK

Row | pIC50 (SHP1) | inhibition at 100 µM (SHP2; at 100 μM compound) [%] | pIC50 (SHP2) | selectivity, inhibition activity towards SHP2 over SHP1 (SHP2; SHP2 over SHP1) [fold] | inhibition of SHP2 enzyme (SHP2; at 100 μM compound, 100 µM) | SMILES | reduction of MCF-7 proliferation (MCF-7 [1]) [%] | reduction of MCF-7 viability (MCF-7 [2]) [%] | reduction of MDA-MB-231 proliferation (MDA-MB-231 [3]) [%] | reduction of MDA-MB-231 viability (MDA-MB-231 [4]) [%]
1 | 4.84 | 99 | 5.72 | – | – | O=C(O)CSC(Nc1ccccc1C(=O)O)c1ccccc1 (centres unmarked) [Compound 24198] | 34.7 | 65.2 | – | –
2 | 4.07 | 98 | 5.49 | – | – | COc1ccc2nc3cc(Cl)ccc3c(SC(CC(=O)O)C(=O)O)c2c1 (centres unmarked) [Compound 13030] | 42.1 | 64.4 | – | –
3 | 4.81 | 79 | 5.35 | – | – | Cc1ccc(C(=O)Nc2ccc(S(=O)(=O)O)c3cc(S(=O)(=O)O)cc(S(=O)(=O)O)c23)cc1NC(=O)c1cccc(NC(=O)Nc2cccc(C(=O)Nc3cc(C(=O)Nc4ccc(S(=O)(=O)O)c5cc(S(=O)(=O)O)cc(S(=O)(=O)O)c45)ccc3C)c2)c1 [Suramin, reference compound] | – | – | – | –
4 | 3.78 | – | 6.10 | 200 | complete SHP2 inhibition | Cc1c2oc3c(C)ccc(C(=O)O)c3nc-2c(C(=O)O)c(N)c1=O [Compound 57774] | 74.5 | 65.8 | 64 | 36.2
5 | – | 71 | 4.48 | – | – | O=C(c1ccccc1)c1ccc2c(Cl)ccc(C(=O)O)c2c1C(=O)O [Compound 137420] | – | – | – | –
